The numbers were not newly measured in patent US11071785B2, “Liquid formulation of long-lasting protein conjugate comprising the oxyntomodulin and an immunoglobulin Fc region” (HANMI PHARM, CO., LTD, priority 2012, dated 2021), which cites them from elsewhere.

For data set [1] the following is noted: when administered for 1 year.
The conditions of data set [2]: in vivo.

For the compound `CCCCCCCCCCC[C@@H](C[C@@H]1OC(=O)[C@H]1CCCCCC)OC(=O)[C@H](CC(C)C)NC=O` [Orlistat], the weight reduction effect result in data set [1] is given as “about 4 kg”. Take `Cc1c(C(=O)NN2CCCCC2)nn(-c2ccc(Cl)cc2Cl)c1-c1ccc(Cl)cc1` [Rimonabant]: the side effects reported entry in data set [2] is “disorders of the central nervous system”. For the compound `CC(C)CC(N(C)C)C1(c2ccc(Cl)cc2)CCC1` (stereo not shown) [Sibutramine], in data set [2], the side effects reported result is recorded as “cardiovascular side effects”. Contrave: in data set [2], the side effects reported result is recorded as “cardiovascular side effects”.
